Entries after “also recorded” stand apart in the source; their conditions may differ. Where two headings read alike, the source gives them in different places.
Tests used:
c-fos = assay: Pharmacomapping: whole-brain drug-evoked c-fos activation; conditions: for brain activation of each drug alone: gaboxadol at 3 mg/kg alone, ketamine at 6 mg/kg alone; for brain activation compared with non-deuterated gaboxadol at the same dose: 2.5 hour post administration; for brain activation compared with gaboxadol: BSTrh
Protocol: (A) Mice are treated with a drug or vehicle solution for the control group using either intraperitoneal (i.p.), per oral (p.o.). subcutaneous (s.c.), intramuscular (i.m.) or intravenous (i.v.) delivery. […] (C) After that period the mice are killed, the c-fos induction is visualized using whole-brain immunostaining, the brains are chemically cleared and finally imaged by light-sheet fluorescent microscopy (LSFM). (D) The whole-brain scans are represented as serial section datasets typically with XYZ resolution of 4×4×5 microns. (E) The c-fos+ cells are detected in these datasets using custom trained machine learning algorithms. (F) The whole-brain distribution of the detected c-fos+ cells is represented in 3D as a spatial map of centroid points in the 3D space of the mouse brain. (G) This 3D map distribution is registered to a reference mouse brain and spatially voxelized using overlapping 150-micron sphere voxels.
At 2.5 hour post administration, the mice were euthanized and brains were immediately preserved by 4% paraformaldehyde (PFA).

mouse = assay: Forced swim test; format: in vivo; conditions: single dose 10 mg/kg, 1 hour and 24 hours after drug delivery, 6 min forced swim
Protocol: The forced swim test is a frequently used behavioral protocol with a well-established therapeutic predictability for a broad range of antidepressants including ketamine (Porsolt et al. 1977; Cryan and Mombereau 2004; Cryan et al. 2005; Lucki et al. 2001). In this test the mouse is put in a beaker filled with water and the time spent struggling, swimming and floating is measured, with the time spent floating—when the mouse stops struggling to swim—being used as a behavioral correlate of depression.

mice = assay: Onset of sedation (immobility) in the open field test (OFT); format: in vivo
[1] = tested on: patients with severe major depressive disorder; conditions: 490 patients; daily oral escitalopram 20 mg and gaboxadol 5 mg or 10 mg; cited from earlier work
[2] = 20 mg dose; cited from earlier work
cytochrome P450s (CYPs) = conditions: cited from earlier work
[3] = human doses equivalent to the mouse 6 mg/kg dose; cited from earlier work
[4] = tested on: combined delta, theta and alpha activity; conditions: 160 minutes after the first treatment; cited from earlier work
GABAA receptor = conditions: in vivo; cited from earlier work
insomnia = conditions: three-month efficacy study; cited from earlier work
rodent = assay: d-amphetamine-induced hyperlocomotion (rodent model of mania); format: in vivo; conditions: gaboxadol at 3 mg/kg alone
[5] = cited from earlier work

Question: Which whole-brain activation pattern (c-fos; acute single dose 10 mg/kg, many cortical areas and midline thalamic nuclei) does the source give for `CNC1(c2ccccc2Cl)CCCCC1=O` (stereo not shown) [ketamine] here?
Answer: very robust and broad activation

Question: What about the whole-brain activation pattern (c-fos; acute single dose 5 and 100 mg/kg) of the same molecule?
Answer: modest activation

Question: What about the “brain activation of each drug alone” value (c-fos) of the same molecule?
Answer: neither gaboxadol at 3 mg/kg nor ketamine at 6 mg/kg alone evoked any brain activation detectable

Question: And the “time spent floating (immobility) compared to vehicle treated control group” value (mouse)?
Answer: significantly reduced the time spent in floating; also recorded: significantly decreases the time the drug treated mice spent floating

Question: For `[2H]C1([2H])NCCc2c1o[nH]c2=O` [d2-gaboxadol 7,7, 4,5,6,7-tetrahydroisoxazolo[5,4-c]pyridin-3(2H)-one-7,7-d2], which “brain activation compared with non-deuterated gaboxadol at the same dose” value (c-fos; 6 mg/kg i.p., ORBm, ILA, ACAd, AI, GU, VISC, CLA, LSr, BSTa) is on record?
Answer: considerably higher brain activation than non-deuterated gaboxadol

Question: What about the “brain activation compared with non-deuterated gaboxadol at the same dose” value (c-fos; 6 mg/kg i.p., ORBm, ILA, ACAd, AI, GU, VISC, CLA, LSr, BSTa, listed as d2-gaboxadol) of the same molecule?
Answer: considerably stronger

Question: What about the “enhancement of synergies with lithium compared with non-deuterated gaboxadol” value (c-fos; 6 mg/kg with lithium at 150 mg/kg (FIG. 38)) of the same molecule?
Answer: significantly stronger enhancement of synergies with lithium than is found with non-deuterated gaboxadol

Question: What about the “level of brain activation compared with the same doses of non-deuterated gaboxadol” value (c-fos; 6, 10 and in some cases 20 mg/kg, certain brain areas (e.g. ILA and CP)) of the same molecule?
Answer: higher than the level of activation obtained by the same doses of non-deuterated gaboxadol

Question: And the “dose of non-deuterated gaboxadol with equivalent/comparable brain activation” value (c-fos; d2-gaboxadol 7,7 at 6 mg/kg, mice, listed as ring carbon deuterated gaboxadol (7,7-d2), 6 mg/kg)?
Answer: 10 to 20 mg/kg

Question: And the “onset of sedation (start of immobility)” value (mice)?
Answer: 13 min

Question: What about the “onset of sedation (start of immobility)” value (mice; listed as d2-gaboxadol) of the same molecule?
Answer: 13 to 14 min

Question: What does the source list for `Oc1noc2c1CCNC2` [gaboxadol, 4,5,6,7-tetrahydroisoxazolo (5,4-c) pyridin-3-ol]?
Answer: benefit of oral gaboxadol added to escitalopram [1]: no additional benefit relative to escitalopram alone; AUC0-∞ [2]: about 900 ng*hr/ml; Cmax [2]: 900 ng/mL; plasma Tmax [2]: ≤ 1.5 h; metabolism by CYPs (cytochrome P450s (CYPs)): not metabolized by CYPs; adverse side-effects in clinical trials [3]: no significant adverse side-effects; whole head MEG planar gradiometer increase in combined delta, theta and alpha activity [4]: ≥ +3; whole-brain activation pattern compared with ketamine (c-fos; gaboxadol 10 mg/kg vs ketamine 10 mg/kg): very similar brain activation as ketamine; brain activation of each drug alone (c-fos): neither gaboxadol at 3 mg/kg nor ketamine at 6 mg/kg alone evoked any brain activation detectable; brain activation of each compound alone (c-fos; lithium at 150 mg/kg alone, gaboxadol at 6 mg/kg alone): moderate brain activation on their own; GABAA receptor saturation level (blood level) (GABAA receptor): over 900 ng/ml; onset of sedation (start of immobility) (mice): 15 min; time spent floating (immobility) compared to vehicle treated control group (mouse): significantly reduced the time spent in floating; also recorded: nearly identical behavioral effect as the ketamine group; effects in sleep onset and sleep maintenance (insomnia): failed to show significant effects in sleep onset and sleep maintenance; effect on amphetamine-induced hyperlocomotion (rodent): only modestly

Question: What does the source list for `[Li]` [lithium]?
Answer: typical therapeutic concentration in the serum ([5]; acute treatment of manic episodes): 0.6 to 1.2 mmol/L; serum concentration associated with mild toxicity ([5]; in vivo): 1200 to 2500 µM; serum concentration that can be life-threatening ([5]; in vivo): greater than 3.5 mmol/L

Question: For `[2H]C1([2H])NC([2H])([2H])C([2H])([2H])c2c1o[nH]c2=O` [d6-gaboxadol, 4,5,6,7-tetrahydroisoxazolo[5,4-c]pyridin-3(2H)-one-4,4,5,5,7,7-d6], which “brain activation compared with gaboxadol” value (c-fos; 6 mg per kg, GU, VISC, AI (AId, AIp), TEa, CLA, BSTa, LC) is on record?
Answer: higher brain activation than gaboxadol

Question: What about the “brain activation compared with gaboxadol” value (c-fos; 10 mg per kg, ACA (ACAd, ACAv), ILA, GU, VISC, AI, TEa, CLA, BSTa) of the same molecule?
Answer: more efficacious in evoking brain activation than gaboxadol

Question: And the “brain activation compared with gaboxadol” value (c-fos; 20 mg per kg, BSTa, BSTov, BSTp, LC, CP, STRv (ACB, OT))?
Answer: higher brain activation than gaboxadol

Question: What about the “brain activation compared with non-deuterated gaboxadol at the same dose” value (c-fos; 6, 10 and 20 mg per kg i.p.) of the same molecule?
Answer: considerably higher brain activation than non-deuterated gaboxadol

Question: What about the “onset of sedation (start of immobility)” value (mice) of the same molecule?
Answer: 11 min

Reference: patent US11597726B2 (Certego Therapeutics Inc., priority 2020, dated 2023)
